Source: the NIST ThermoML archive (doi:10.1021/acs.jced.6b00750)

Assay: xn = mol fraction of the nth substance listed
Conditions: Liquid; for mass density: Vibrating wire densiometer; for viscosity: Vibrating wire viscometry

CCCCCCCCCCCCCCCC [hexadecane] + O=C=O
Conditions | mass density [kg/m3] | viscosity [mPa·s]
373.08 K, 80110 kPa, x2 = 0.727 | 813.1 | 0.581
373.08 K, 80560 kPa, x2 = 0.069 | 773.5 | 1.794
373.08 K, 99990 kPa, x2 = 0.727 | 828.7 | 0.659
373.08 K, 100830 kPa, x2 = 0.069 | 783.5 | 2.087
373.08 K, 117640 kPa, x2 = 0.727 | 840.7 | 0.735
373.11 K, 20760 kPa, x2 = 0.5877 | 745.5 | 0.463
373.11 K, 20790 kPa, x2 = 0.5877 | 745.5 | 0.463
373.11 K, 40220 kPa, x2 = 0.5877 | 768.7 | 0.564
373.11 K, 60460 kPa, x2 = 0.5877 | 787.7 | 0.67
373.11 K, 80240 kPa, x2 = 0.5877 | 803.1 | 0.775
423.11 K, 11500 kPa, x2 = 0.069 | 694.2 | 0.574
423.11 K, 11890 kPa, x2 = 0.069 | 694.7 | 0.576
423.11 K, 21700 kPa, x2 = 0.069 | 705.2 | 0.645
423.11 K, 25910 kPa, x2 = 0.5877 | 708.9 | 0.328
423.11 K, 25970 kPa, x2 = 0.5877 | 709.4 | 0.33
423.11 K, 40190 kPa, x2 = 0.5877 | 730.3 | 0.384
423.11 K, 40710 kPa, x2 = 0.069 | 722.5 | 0.778
423.11 K, 42080 kPa, x2 = 0.727 | 730.1 | 0.296
423.11 K, 42200 kPa, x2 = 0.727 | 730.3 | 0.296
423.11 K, 60240 kPa, x2 = 0.5877 | 753.3 | 0.462
423.11 K, 60280 kPa, x2 = 0.727 | 755.6 | 0.353
423.11 K, 60590 kPa, x2 = 0.069 | 737.2 | 0.929
423.11 K, 80390 kPa, x2 = 0.727 | 777.7 | 0.412
423.11 K, 80460 kPa, x2 = 0.5877 | 772 | 0.537
423.11 K, 80740 kPa, x2 = 0.069 | 750 | 1.083
423.11 K, 100360 kPa, x2 = 0.727 | 795.9 | 0.471
423.11 K, 100800 kPa, x2 = 0.5877 | 787.9 | 0.614
423.11 K, 101550 kPa, x2 = 0.069 | 761.6 | 1.253
423.11 K, 118170 kPa, x2 = 0.5877 | 799.8 | 0.683
423.11 K, 120210 kPa, x2 = 0.727 | 811.4 | 0.529
473.15 K, 43620 kPa, x2 = 0.5877 | 697.7 | 0.293
473.15 K, 43720 kPa, x2 = 0.5877 | 697.7 | 0.292
473.15 K, 60700 kPa, x2 = 0.5877 | 720.7 | 0.343
473.15 K, 80450 kPa, x2 = 0.5877 | 742 | 0.402
473.15 K, 100840 kPa, x2 = 0.5877 | 760.2 | 0.46
473.15 K, 120610 kPa, x2 = 0.5877 | 775.2 | 0.52
473.26 K, 61090 kPa, x2 = 0.727 | 718.9 | 0.267
473.26 K, 61330 kPa, x2 = 0.727 | 719.1 | 0.268
473.26 K, 80480 kPa, x2 = 0.727 | 744 | 0.313
473.26 K, 100590 kPa, x2 = 0.727 | 765.1 | 0.36
473.26 K, 120860 kPa, x2 = 0.727 | 783 | 0.407
